Source: patent publication US8906955B2, “Use of adrenergic beta-3-receptor agonists in anti-aging” (priority 2012, dated 2014)

Assays:
[1] = test system: mTOR/α-Tubulin; experiment: mTOR/α-Tubulin double staining in cardiac fibroblast; type: cell-based, rat; conditions: cardiac fibroblast of rats, 10^−7 M, confocal microscope
Description: (§1) Beta-3 receptor promoted binding of mTORC2 to α-Tubulin in spindle apparatus. BRL37344 was used to treat cardiac fibroblast of rats at 10^−7 M. The cells were undergone mTOR/α-Tubulin immunohistochemical double staining and Rictor/α-Tubulin immunofluorescence double staining, and observed under confocal microscope.

[2] = test system: mTOR/Rictor complex; experiment: Western blot of mTOR/Rictor complex; type: cell-based; conditions: rat cardiomyocyte, 10^−7 M, 24 h, compared to control shRNA
Description: Activation of the β3 receptor could increase mTOR/Rictor complex in […]. shRNA of β3 adrenergic receptor, control shRNA, BRL37344 and SR59230A was used to treat rat cardiomyocyte each at 10^−7 M. After 24 h, total protein was extracted and subjected to western blot to determine the expression amount of mTOR and Rictor proteins.

[3] = test system: rat myocardial infarction models; experiment: Rat myocardial infarction (heart failure) model: B-ultrasonography, tunel apoptosis, LVW/BW; type: in vivo; conditions: 1 mg/kg/day intraperitoneally, 4 weeks
Description: (§2) In rat myocardial infarction models, activation of the β-3 receptor could increase level of SIRT1 in cardiomyocyte, inhibit expression of p53, improve the cardiac function and achieve anti-apoptosis effect. The myocardial infarction model was created by ligation of anterior descending branch of rat left coronary artery. BRL37344 was intraperitoneally injected at 1 mg/kg/day, and heart B-ultrasonography was performed after 4 weeks. Heart tissue was determined for apoptosis (tunel method) and expression levels of SIRT1 and p53 (western blot). The ratio of left ventricular weight to body weight (LVW/BW) is determined. It can be seen from the results shown in FIGS. 3 to 5, that BRL37344 decreases p53 expression, cardiac cell apoptosis, and value of LVW/BW of heart failure rat, increases SIRT1 expression, alleviate cardiac hypertrophy and improve cardiac function.

[4] = test system: SIRT4; experiment: Quantitative PCR of SIRT4 in organs of aging rats; type: in vivo; conditions: 12-month male SD rats, 100 nmol per rat intraperitoneally, qd, 2 weeks, vs control group
Description: (§3) Activation of the β3 receptor could increase the expression of SIRT1, SIRT3 and SIRT4 in heart, liver, brain, kidney and aorta of aging rats. Twenty 12-month male SD rats were randomly divided into 2 groups. The rats were intraperitoneally injected with BRL37344 at 100 nmol for each rat, qd, 2 weeks. The rats in control group were administrated with solvents of same volume. The rats were sacrificed to obtain heart, liver, brain, kidney and aorta, followed by total RNA extraction. The RNA was then reversely transcribed, followed by quantitative PCR to detect gene expression of SIRT1, SIRT3 and SIRT4. Compared to the control group, BRL37344 increases the expression of SIRT1, SIRT3 and SIRT4 in heart, liver, brain, kidney and aorta.

[5] = test system: Rictor/α-Tubulin; experiment: Rictor/α-Tubulin immunofluorescence double staining in cardiac fibroblast; type: cell-based, rat; conditions: cardiac fibroblast of rats, 10^−7 M, confocal microscope
Description: as §1

[6] = test system: MCF7 cells; experiment: H2DCFDA flow cytometry of reactive oxygen species; type: cell-based; conditions: 10^−7 M, fluorescence probe H2DCFDA
Description: (§4) Activation of the β3 receptor could increase mitochondrial content of MCF7 cells. BRL37344 and SR59230A were used to treat MCF7 cells and naked tumor-bearing rats each at 10^−7 M. The amount of mitochondrion was determined by MitoTracker probes. Mitochondrial membrane potential was determinded by JC1. The ROS content of the cells was determined by fluorescence probe H2DCFDA. ATP level was determined by ATP kit. MDC staining was determined by flowcytometer. GFP-LC3 eukaryotic expression vectors were used for transfection. […] BRL37344 protected mitochondrial membrane potential (FIG. 10), reduced intracellular ROS content (FIG. 11), and increased intracellular ATP level (FIG. 12).

[7] = test system: SIRT3; experiment: Quantitative PCR of SIRT3 in organs of aging rats; type: in vivo; conditions: 12-month male SD rats, 100 nmol per rat intraperitoneally, qd, 2 weeks, vs control group
Description: as §3

[8] = test system: cardiomyocyte; experiment: Lipofuscin in cardiomyocyte under confocal microscope; type: cell-based, rat; conditions: 10^−7 M, 10 days
Description: Beta-3 receptor reduced amount of lipofuscin in cardiomyocyte. BRL37344 and SR59230A were used to treat cardiomyocyte each at 10^−7 M. After 10 days, cells were observed under confocal microscope for lipofuscin.

[9] = test system: adipose-derived stem cells of rats; experiment: β-Galactosidase staining of adipose-derived stem cells; type: cell-based, rat; conditions: 10^−7 M, 24 h, compared with SR59230A
Description: Blockage of the β-3 receptor could increase level of β-galactosidase in adipose-derived stem cells and promote stem cell aging. BRL37344 and SR59230A were used to treat adipose-derived stem cells of rats each at 10^−7 M. After 24 h, cells were fixed using paraformaldehyde, and stained and photographed according to the specification of β-Galactosidase Staining Kit. BRL37344 decreases the level of β-galactosidase in adipose-derived stem cells compared with SR59230A, indicating agonisting of adrenergic β3 receptors of adipose-derived stem cells achieves anti-aging effect.

[10] = test system: naked tumor-bearing rats; experiment: ATP content by ATP kit in tumor tissue of naked tumor-bearing rats; type: in vivo, rat; conditions: 10^−7 M
Description: as §4

[11] = test system: p53; experiment: Western blot of p53 in heart tissue of myocardial infarction rats; type: in vivo; conditions: heart failure rat, 1 mg/kg/day intraperitoneally, 4 weeks
Description: as §2

[12] = test system: SIRT1; experiment: Western blot of SIRT1 in heart tissue of myocardial infarction rats; type: in vivo; conditions: heart failure rat, 1 mg/kg/day intraperitoneally, 4 weeks
Description: as §2

[13] = test system: MCF7 cells; experiment: JC-1 flow cytometry of mitochondrial membrane potential; type: cell-based; conditions: 10^−7 M
Description: as §4

[14] = test system: SIRT1; experiment: Quantitative PCR of SIRT1 in organs of aging rats; type: in vivo; conditions: 12-month male SD rats, 100 nmol per rat intraperitoneally, qd, 2 weeks, vs control group
Description: as §3

[15] = test system: MCF7 cells; experiment: GFP-LC3 eukaryotic expression vector transfection; type: cell-based; conditions: 10^−7 M, GFP-LC3 transfected cells
Description: as §4

[16] = test system: MCF7 cells; experiment: MDC staining by flowcytometer; type: cell-based; conditions: 10^−7 M
Description: as §4

[17] = test system: MCF7 cells; experiment: MitoTracker/LC3B immunofluorescence double staining (mitochondrion content, mitophagy); type: cell-based; conditions: 10^−7 M
Description: as §4

[18] = test system: p53; experiment: Western blot of p53 in MCF-7 cells treated with SR59230A; type: cell-based; conditions: 24 h, with increasing SR59230A concentration, western blot vs GAPDH
Description: (§5) MCF-7 cells were treated with SR59230A at different concentrations. After 24 h, the cells were lysed to extract total protein. The protein concentration was determined by BCA method. 10 μg of the protein was used to perform 10% SDS PAGE, and then transferred to a PVDF membrane. The membrane was blocked for 1 h with TBST (10 mmol/L Tris HCl, pH 7.5, 150 mmol/L NaCl, 0.1% Tween 20) containing 4% fat-free milk, and incubated overnight with p53 antibody (1:1000) and SIRT1 antibody (1:1000) at 4° C. The membrane was further incubated with secondary antibodies for 1 h after washing, followed by ECL color development. The same procedure is repeated 3 times. The gray values of protein bands were obtained through Fluorchem 8900 software and the ratio of target band to reference band (GAPDH) was calculated. Results are shown in FIGS. 1 and 2, wherein the expression level of p53 is increased as the increase of SR59230A concentration, while SIRT1 is decreased.

[19] = test system: SIRT1; experiment: Western blot of SIRT1 in MCF-7 cells treated with SR59230A; type: cell-based; conditions: 24 h, with increasing SR59230A concentration, western blot vs GAPDH
Description: as §5

Compound: C[C@H](Cc1ccc(OCC(=O)O)cc1)NC[C@H](O)c1cccc(Cl)c1 [BRL37344]
- binding of mTOR to α-Tubulin in spindle apparatus [1]: promoted
- mTOR/Rictor complex [2]: increases
- cardiac hypertrophy [3]: alleviate
- ratio of left ventricular weight to body weight (LVW/BW) [3]: decreases
- cardiac function ([3]; heart B-ultrasonography, 1 mg/kg/day): improve
- cardiac cell apoptosis ([3]; tunel method, 1 mg/kg/day): decreases
- expression of SIRT4 in heart, liver, brain, kidney and aorta [4]: increases
- binding of Rictor to α-Tubulin [5]: promoted
- intracellular ROS content [6]: reduced
- expression of SIRT3 in heart, liver, brain, kidney and aorta [7]: increases
- lipofuscin in cardiomyocyte [8]: significantly reduced
- level of β-galactosidase in adipose-derived stem cells [9]: decreases
- intracellular ATP level [10]: increased
- p53 expression in rat myocardia [11]: decreases
- SIRT1 expression in rat myocardia [12]: increases
- mitochondrial membrane potential [13]: protected
- expression of SIRT1 in heart, liver, brain, kidney and aorta [14]: increases

Compound: CCc1ccccc1OC[C@@H](O)CN[C@H]1CCCc2ccccc21 [SR59230A]
- GFP-LC3 fluorescent spots [15]: promoted to form many bright and green fluorescent spots
- MDC staining [16]: increased
- content of mitochondrion ([17]; MitoTracker probes): decreases
- mitophagy ([17]; MitoTracker/LC3B double staining): enhance
- expression level of p53 [18]: increased
- expression level of SIRT1 [19]: decreased
- mitochondrial membrane potential [13]: damaged
